This assay concerns High Cholesterol Fed Rats. The experiment in a line: HDL Cholesterol Assay in High Cholesterol Fed Rats. The class given is in vivo, Male Sprague-Dawley rats. The following applies: Rattus norvegicus, 168 h, oral once a day over the final 7 days of a 14-day high cholesterol diet, HDL increase relative to the vehicle, read-out: Serum HDL cholesterol levels (% of increase) at 30 mg/kg. Here is the method: HDL Cholesterol Assay in High Cholesterol Fed Rats
Male Sprague-Dawley rats (BW: 100-120 g) were fed a high cholesterol diet (1.25% cholesterol, 0.5% cholic acid and 10% coconut oil) for 14 days. The animals were orally dosed with test compounds suspended to 0.5% methylcellulose solution once a day over the final 7 days. Typical doses of test compounds were 1-30 mg/kg/day.
After 7 days of treatment, serum HDL cholesterol concentration was determined from blood obtained by tail bleeds. HDL cholesterol determination was performed on a Hitachi 7170 automatic analyzer.
Serum HDL cholesterol level (% of increase) refers to the rate of HDL increase relative to the vehicle and was calculated as follows: […]
Consider `Cc1cc(COc2ccc(C(F)(F)F)cc2)ccc1Sc1ccc(OCC(=O)O)cc1C` [Compound 11], for which the change in vivo at 30 mg/kg was over 100%. In the case of `Cc1cc(Sc2ccc(OCc3ccc(C(F)(F)F)cc3)cc2)ccc1OCC(=O)O` [Compound 8], the change in vivo at 30 mg/kg was over 100%. The result for `O=C(O)COc1ccc(Sc2ccc(CNc3ccc(C(F)(F)F)cc3)cc2Cl)c2c1CCCC2` [Compound 22, (4-{2-chloro-4-[(4-trifluoromethyl-phenylamino)-methyl]-phenylsulfanyl}-5,6,7,8-tetrahydro-naphthalen-1-yloxy)-acetic acid] reads at most 100%; that for `Cc1cc(Sc2ccc(COc3ccc(C(F)(F)F)cc3)cc2)ccc1OCC(=O)O` [Compound 7, 4-[[4-[(4-trifluoromethylphenoxy)methyl]phenyl]sulfanyl]-2-methylphenoxy-acetic acid], at most 100%; that for `Cc1cc(Sc2ccc(COc3ccc(C(F)(F)F)cc3)cc2Cl)ccc1OCC(=O)O` [Compound 10, 4-[[2-chloro-4-[(4-trifluoromethylphenoxy)methyl]phenyl]sulfanyl]-2-methylphenoxy-acetic acid], at most 100%. For the compound `Cc1cc(S(=O)(=O)c2ccc(OCc3ccc(C(F)(F)F)cc3)cc2C)ccc1OCC(=O)O` [Compound 5, 4-[[2-methyl-4-(4-trifluoromethyl-benzyloxy)phenyl]sulfonyl]-2-methylphenoxy-acetic acid], the change in vivo at 30 mg/kg was at most 100%. The result for `Cc1cc(Sc2ccc(OCc3ccc(C(F)(F)F)cc3)c(C)c2)ccc1OCC(=O)O` [Compound 1, {2-methyl-4-[3-methyl-4-(4-trifluoromethyl-benzyloxy)-phenylsulfanyl]-phenoxy}-acetic acid] reads over 100%. With `Cc1cc(Sc2ccc(OCC(=O)O)c3ccccc23)ccc1OCc1ccc(C(F)(F)F)cc1` [Compound 9] the figure was at most 100%; with `CCCc1cc(Sc2ccc(OCc3ccc(C(F)(F)F)cc3)c(C)c2)ccc1OCC(=O)O` [Compound 4, 4-[[3-methyl-4-(4-trifluoromethyl-benzyloxy)phenyl]sulfanyl]-2-propylphenoxy-acetic acid], over 100%; with `Cc1cc(Sc2ccc(CNc3ccc(C(F)(F)F)cc3)cc2C)c(C)cc1OCC(=O)O` [Compound 21, 2,5-dimethyl-4-[[2-methyl-4-[(4-trifluoromethyl-phenylamino)methyl]phenyl]sulfanyl]phenoxy-acetic acid], over 100%.

These data come from patent US7645779B2, “Linked biaryl compounds” (Amgen Inc., priority 2001, dated 2010).
